Assay results as given in patent US7713960B2, “Inhibition of the Raf/Mek/P-Erk pathway for treating cancer” (University of South Florida, priority 2005, dated 2010).
Structures can show the parent of a compound that is named as a salt.

Tests used:
Assay type in all cases: cell-based, human
[1] = system: c-Raf-1; assay: In vivo kinase assay, intact MDA-MB-231 cells treated, c-Raf-1; conditions: 10 μM
Protocol: In Vitro Kinase Assays—MDA-MB-231 cells (2×10^6) were lysed for 30 minutes at 4° C. in RIPA-150 buffer (10 mM Tris pH 7.5, 150 mM NaCl, 10% glycerol, 5 mM EDTA, 1% Triton X-100, 0.1% SDS, 100 μM sodium orthovanadate, 1 μM aprotinin, 10 μM leupeptin, 10 μM antipain). Cell debris was pelleted at 13000 rpm for 15 minutes at 4° C. and the lysate was rocked overnight with 10 μg of either c-Raf or MEK antibodies (Santa Cruz Biotechnologies, Santa Cruz, Calif.). 25 μl of protein A/G PLUS agarose (Santa Cruz Biotechnology) was then added and rocked for 4 hours at 4° C. Samples were spun at 2000 rpm for 5 minutes to collect the agarose beads, which were then washed four times with lysis buffer. On the final wash each pellet was divided into 5. […]

[2] = system: ACHN cells; assay: Anchorage-dependent growth (MTT assay), ACHN
Protocol: MTT Assay—2000 cells per well were plated into 96 well tissue culture plates, and the cells were allowed to attach overnight at 37° C. with 10% CO2. Cells were then treated with increasing concentrations of ARA-211, or vehicle (DMSO) and incubated for four days. At that time treatment medium was removed and replaced with 100 μl of lmg/ml MTT (Sigma-Aldrich, St. Louis, Mo.) in media and incubated at 37° C., 10% CO2 for 3 hours. After 3 hours the MTT media was removed and replaced with 100 μl/well of DMSO, rocked at room temperature for 5 minutes, then absorbance read at 540 nm on a micro-plate reader.

[3] = system: A-549 cells; assay: Anchorage-independent growth (soft agar assay), A-549; conditions: n = 6
Protocol: (§1) Soft Agar Assay—Anchorage independent growth assays were performed as previously described (Lerner et al., 1997). Briefly, agar was diluted to 0.3% in propagation media containing 20,000 cells and either vehicle or ARA-211 and 1 ml of cell/agar mixture plated on top of 2 ml of a 0.6% layer of agar in medium alone. Cells were grown for three to four weeks at 37° C., 10% Co2 and were fed weekly with 100 μl per well of media/treatment. Quantification of colonies was done using a GS-700 scanning densitometer.

[4] = system: P-Mek-1; assay: P-Mek-1 levels (Western blotting), MDA-MB-231
Protocol: (§2) Western Blotting—Treated cell samples were lysed in 30 mM HEPES, 10 mM NaCl, 5 mM MgCl2, 25 mM NaF, 1 mM EGTA, 1% Triton-X-100, 10% Glycerol, 2 mM Sodium orthovanidate, 10 μg/mL aprotinin, 10 μg/mL soybean trypsin inhibitor, 25 μg/mL leupeptin, 2 mM phenylmethylsulfonylfluoride (PMSF), 6.4 mg/mL p-nitrophenylphosphate for 30 minutes at 4° C., and proteins run on SDS-PAGE gels then transferred to nitrocellulose membranes. Membranes were blocked in either 5% milk in PBS, pH 7.4, containing 0.1% Tween-20 (PBS-T) or 1% BSA in TBS, pH 7.5, containing 0.1% Tween-20 (TBS-T). Phospho-STAT3 and phospho-AKT antibodies were diluted in 1% BSA in TBS-T while phospho-c-Raf, phospho-Mek, and phospho-p44/p42 MAPK antibodies (Cell Signaling) were diluted in 5% milk in PBS-T for either 1 hour at room temperature or overnight at 4° C. HRP-conjugated secondary antibodies (Jackson ImmunoResearch, West Grove, Pa.) were diluted in 5% milk in PBS-T or TBS-T at a 1:1000 dilution for one hour at room temperature. Western blots results were visualized using enhanced chemiluminescence. Stripping of the membranes for reblotting was done using stripping buffer (62.5 mM Tris pH 7.6, 2% SDS, 0.7% 2-mercaptoethanol) at 50° C. for 30 minutes.

[5] = system: P-Erk 1/2; assay: P-Erk 1/2 levels (Western blotting), SF-539
Protocol: as §2

[6] = system: ACHN cells; assay: Anchorage-independent growth (soft agar assay), ACHN
Protocol: as §1

[7] = system: P-Erk 1/2; assay: Growth factor (EGF) stimulation of P-Erk 1/2, MDA-MB-231 cells
[8] = system: MDA-MB-231 cells; assay: Apoptosis assay (Cell Death Detection ELISA), MDA-MB-231; conditions: 48 hours
Protocol: Apoptosis Assay—Apoptosis was analyzed using the Cell Death Detection ELISA (Roche, Indianapolis, Ind.) measuring cytoplasmic histone-associated mono- and oligonucleosome DNA fragments. Procedures were carried out according to the manufacturers protocol. Briefly, 1×10^5 cells were plated in 60 mm dishes and treated with various doses of ARA-211 or vehicle for 48 hours. Cells were lysed with the provided lysis buffer and lysate was incubated on the ELISA plate for 1 hour to capture the histone associated DNA indicative of apoptotic cells. Anti-DNA peroxidase conjugated antibody was added to detect the cleaved DNA and the microplate was washed and developed with ABTS substrate which was quantitated by microplate reader at 405 nm.

CC(C)(C)NCC(O)c1ccc(O)c(CO)n1 (centres unmarked) [ARA-211, 2-hydroxymethyl-3-hydroxy-6-(1-hydroxy-2-tert-butylaminoethyl) pyridine, dihydrochloride]
c-Raf-1 kinase activity, intact cells first treated [1]: blocked | Anchorage Dependent Growth (% Inhibition) [2]: 62 ± 12.7% | Anchorage Independent Growth (% Inhibition) [3]: 0 (n = 6) % | P-Mek-1 levels [4]: suppressed | P-Erk ½ (% Inhibition) [5]: 100% | Anchorage Independent Growth (% Inhibition) [6]: 97.9 ± 1.2% | growth factor (EGF) stimulation of P-Erk 1/2 [7]: is blocked | Apoptosis (% Induction) [8]: 15 ± 4%
